The target in one test is T1, human purified αVβ5 (Homo sapiens, UniProt P06756+P18084).
T1 construct: purchased Chemicon International, Inc
As to the kind of experiment: In Vitro Solid Phase Purified αcβ5 Binding Assay (vitronectin/αVβ5). To be noted: vitronectin binding to immobilized purified human αVβ5, mean ± spread. The method, then: (§1) Human αvβ3 (Chemicon International Inc., Temecula, Calif.), at a concentration of 1 μg/ml dissolved in Tris buffer (20 mM Tris, 1 mM CaCl2, 1 mM MgCl2, 10 μM MnCl2, 150 mM NaCl), was immobilized on Immulon 96 well plates (Dynex Technologies, Chantilly, Va.) overnight at 4° C. Plates were washed and treated with blocking buffer (3% BSA in Tris buffer) for 2 h at 37° C. Plates were then rinsed 2 times with assay buffer comprised of Tris buffer. Synthesized compounds were added to wells in duplicate immediately prior to the addition of 2 nM vitronectin (Sigma, St. Louis, Mo.). Following a 3 hour incubation at 37° C., plates were washed 5 times in assay buffer. An anti-human vitronectin IgG rabbit polyclonal antibody (Calbiochem, San Diego, Calif.) was added (1:2000) and plates were incubated for 1 hour at room temperature. VectaStain ABC peroxidase kit reagents (Vector Laboratories, Burlingame, Calif.) employing a biotin labeled anti-rabbit IgG, were utilized for detection of bound antibody. Plates were read at 490 nm on a Molecular Devices (Sunnyvale, Calif.) microplate reader.
In Vitro Solid Phase Purified αcβ5 Binding Assay
All other aspects of the assay including buffers, reagents and incubation times remain unchanged.

For another test, the target named is T2, Human αvβ3 (Homo sapiens, UniProt P05106+P06756).
T2 construct: purchased Chemicon International Inc., Temecula, Calif
T2 sequence (P06756 31-889 limits assumed): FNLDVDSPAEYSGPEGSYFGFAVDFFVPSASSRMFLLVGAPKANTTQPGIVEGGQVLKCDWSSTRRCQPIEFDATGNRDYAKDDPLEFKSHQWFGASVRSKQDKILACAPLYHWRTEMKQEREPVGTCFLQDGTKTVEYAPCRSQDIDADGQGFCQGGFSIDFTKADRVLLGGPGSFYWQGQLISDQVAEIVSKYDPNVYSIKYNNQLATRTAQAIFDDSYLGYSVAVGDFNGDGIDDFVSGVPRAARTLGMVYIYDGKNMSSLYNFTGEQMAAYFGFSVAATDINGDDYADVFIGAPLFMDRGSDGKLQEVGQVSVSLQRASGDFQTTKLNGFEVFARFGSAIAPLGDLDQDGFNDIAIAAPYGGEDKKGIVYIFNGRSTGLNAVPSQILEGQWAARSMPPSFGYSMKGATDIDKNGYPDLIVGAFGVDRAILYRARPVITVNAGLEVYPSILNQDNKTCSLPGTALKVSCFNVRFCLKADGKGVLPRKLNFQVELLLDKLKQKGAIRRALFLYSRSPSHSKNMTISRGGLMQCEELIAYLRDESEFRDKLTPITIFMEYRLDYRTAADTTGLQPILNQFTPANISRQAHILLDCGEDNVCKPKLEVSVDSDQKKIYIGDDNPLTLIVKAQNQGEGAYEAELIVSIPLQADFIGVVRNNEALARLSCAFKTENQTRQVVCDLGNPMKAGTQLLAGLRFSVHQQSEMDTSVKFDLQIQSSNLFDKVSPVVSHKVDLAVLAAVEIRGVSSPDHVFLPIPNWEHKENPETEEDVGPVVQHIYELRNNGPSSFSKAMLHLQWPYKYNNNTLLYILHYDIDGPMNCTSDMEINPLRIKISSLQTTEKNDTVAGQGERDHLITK
T2 sequence (P06756 891-1048 partner limits assumed): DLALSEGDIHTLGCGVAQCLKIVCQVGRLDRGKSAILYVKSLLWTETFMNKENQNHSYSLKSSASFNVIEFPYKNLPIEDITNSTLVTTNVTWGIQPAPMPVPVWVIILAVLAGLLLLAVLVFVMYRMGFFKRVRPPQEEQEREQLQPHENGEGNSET
T2 sequence (P05106 27-788): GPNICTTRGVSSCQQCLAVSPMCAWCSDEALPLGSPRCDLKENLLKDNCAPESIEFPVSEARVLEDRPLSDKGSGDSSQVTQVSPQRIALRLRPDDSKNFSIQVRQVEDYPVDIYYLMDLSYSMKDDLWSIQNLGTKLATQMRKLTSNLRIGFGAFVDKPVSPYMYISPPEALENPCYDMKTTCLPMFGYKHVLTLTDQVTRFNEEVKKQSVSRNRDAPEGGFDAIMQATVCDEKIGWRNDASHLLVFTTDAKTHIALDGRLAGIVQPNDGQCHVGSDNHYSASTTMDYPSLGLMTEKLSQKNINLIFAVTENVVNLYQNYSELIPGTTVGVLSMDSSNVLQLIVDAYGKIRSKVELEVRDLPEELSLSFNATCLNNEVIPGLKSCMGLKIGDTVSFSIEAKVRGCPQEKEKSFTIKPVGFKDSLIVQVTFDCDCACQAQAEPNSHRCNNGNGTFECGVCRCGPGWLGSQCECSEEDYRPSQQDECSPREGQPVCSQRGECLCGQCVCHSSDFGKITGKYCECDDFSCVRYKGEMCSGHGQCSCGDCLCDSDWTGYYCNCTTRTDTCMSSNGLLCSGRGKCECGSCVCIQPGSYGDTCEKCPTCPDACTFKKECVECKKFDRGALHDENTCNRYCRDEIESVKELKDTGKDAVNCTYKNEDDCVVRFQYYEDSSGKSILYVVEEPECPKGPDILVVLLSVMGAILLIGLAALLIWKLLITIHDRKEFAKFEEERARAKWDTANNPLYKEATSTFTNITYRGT
As to the kind of experiment: In Vitro Solid Phase Purified αvβ3 Binding Assay (vitronectin/αvβ3). The following applies: vitronectin binding to immobilized purified human αvβ3, mean ± spread. The method, then: In Vitro Solid Phase Purified αvβ3 Binding Assay
as §1

Another test addresses GP IIb/IIIa (Homo sapiens, UniProt P05106+P08514). As to the kind of experiment: In Vitro Solid Phase Purified GP IIb/IIIa Binding Assay (biotinylated fibrinogen). To be noted: biotinylated fibrinogen binding to immobilized purified GP IIb/IIIa; mean ± spread; read-out: αIIbβ3 IC50. The method, then: In Vitro Solid Phase Purified GP IIb/IIIa Binding Assay
The plate was covered and incubated overnight at 4° C. The GP IIb/IIIa solution was discarded and 150 μL of 5% BSA was added and incubated at RT for 1-3 h. The plate was washed extensively with modified Tyrodes buffer. Biotinylated fibrinogen (25 μL/well) at 2× final concentration was added to the wells that contain the test compounds (25 μL/well). The plate was covered and incubated at RT for 2-4 h. Twenty minutes prior to incubation completion, one drop of Reagent A (VectaStain ABC Horseradish Peroxidase kit, Vector Laboratories, Inc.) and one drop Reagent B were added with mixing to 5 mL modified Tyrodes buffer mix and let stand. The ligand solution was discarded and the plate washed (5×200 μL/well) with modified Tyrodes buffer. […] The Vecta Stain solution was discarded and the wells washed (5×200 μL/well) with modified Tyrodes buffer. Developing buffer (10 mL of 50 mM citrate/phosphate buffer @ pH 5.3, 6 mg o-phenylenediamine, 6 μL 30% H2O2; 50 μL/well) was added and incubated at RT for 3-5 min and then 2 N H2SO4 (50 μL/well) was added.

Like-named read-outs stand apart in the source and are kept apart here.

Chain of GP IIb/IIIa (P08514 32-887 limits assumed): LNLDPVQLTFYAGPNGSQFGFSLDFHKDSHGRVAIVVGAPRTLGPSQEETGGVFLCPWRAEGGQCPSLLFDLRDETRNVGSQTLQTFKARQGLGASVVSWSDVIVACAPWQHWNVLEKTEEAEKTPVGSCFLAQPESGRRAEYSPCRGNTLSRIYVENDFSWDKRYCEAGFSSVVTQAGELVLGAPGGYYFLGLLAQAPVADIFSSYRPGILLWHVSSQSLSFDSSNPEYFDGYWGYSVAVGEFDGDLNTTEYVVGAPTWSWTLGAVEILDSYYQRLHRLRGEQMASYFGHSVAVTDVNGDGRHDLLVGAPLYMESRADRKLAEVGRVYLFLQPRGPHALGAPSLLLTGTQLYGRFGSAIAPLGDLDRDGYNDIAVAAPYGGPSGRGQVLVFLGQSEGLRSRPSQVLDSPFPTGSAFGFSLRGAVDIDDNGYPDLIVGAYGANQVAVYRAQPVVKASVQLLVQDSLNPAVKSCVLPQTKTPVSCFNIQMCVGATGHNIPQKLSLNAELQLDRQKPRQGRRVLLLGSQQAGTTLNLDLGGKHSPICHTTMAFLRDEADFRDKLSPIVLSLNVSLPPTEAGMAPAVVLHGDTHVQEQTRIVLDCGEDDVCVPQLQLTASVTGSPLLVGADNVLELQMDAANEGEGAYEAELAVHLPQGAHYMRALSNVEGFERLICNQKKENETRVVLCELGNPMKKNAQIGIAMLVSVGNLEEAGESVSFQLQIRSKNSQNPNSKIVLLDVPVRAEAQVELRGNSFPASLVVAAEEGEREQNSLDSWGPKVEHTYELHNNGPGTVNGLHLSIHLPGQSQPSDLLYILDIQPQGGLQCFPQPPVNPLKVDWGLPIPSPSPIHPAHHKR
Chain of GP IIb/IIIa (P08514 891-1039 partner limits assumed): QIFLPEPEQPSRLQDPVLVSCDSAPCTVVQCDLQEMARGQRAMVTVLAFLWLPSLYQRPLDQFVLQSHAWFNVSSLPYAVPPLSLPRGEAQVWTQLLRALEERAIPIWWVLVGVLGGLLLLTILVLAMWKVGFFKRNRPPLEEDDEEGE
Chain of GP IIb/IIIa (P05106 27-788): as the sequence (P05106 27-788) above
T1 sequence (P06756 31-889 limits assumed): as the sequence (P06756 31-889 limits assumed) above
T1 sequence (P06756 891-1048 partner limits assumed): as the sequence (P06756 891-1048 partner limits assumed) above
T1 sequence (P18084 24-799): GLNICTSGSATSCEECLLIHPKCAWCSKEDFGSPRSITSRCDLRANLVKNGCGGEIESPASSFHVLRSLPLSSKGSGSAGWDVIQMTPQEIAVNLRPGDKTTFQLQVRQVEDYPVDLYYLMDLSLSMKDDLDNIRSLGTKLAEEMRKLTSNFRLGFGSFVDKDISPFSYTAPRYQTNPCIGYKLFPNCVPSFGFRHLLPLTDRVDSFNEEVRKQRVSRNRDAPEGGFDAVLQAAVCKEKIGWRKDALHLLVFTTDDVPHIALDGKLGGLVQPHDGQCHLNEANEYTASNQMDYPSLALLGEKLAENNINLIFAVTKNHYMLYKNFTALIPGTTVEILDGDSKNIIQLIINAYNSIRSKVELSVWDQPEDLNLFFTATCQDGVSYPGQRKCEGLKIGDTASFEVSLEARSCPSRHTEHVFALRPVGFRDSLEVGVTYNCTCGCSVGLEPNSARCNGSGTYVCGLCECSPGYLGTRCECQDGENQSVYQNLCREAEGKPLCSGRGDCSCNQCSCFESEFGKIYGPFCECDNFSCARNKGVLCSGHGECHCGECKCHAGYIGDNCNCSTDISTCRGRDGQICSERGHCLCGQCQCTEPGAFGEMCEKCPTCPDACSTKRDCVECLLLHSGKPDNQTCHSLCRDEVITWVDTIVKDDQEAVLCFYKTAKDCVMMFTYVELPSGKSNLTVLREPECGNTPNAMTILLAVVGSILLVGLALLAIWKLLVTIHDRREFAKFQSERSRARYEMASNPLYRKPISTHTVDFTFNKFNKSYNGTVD

`O=C(O)CC(CC1CCN(C(=O)CCc2ccc3c(n2)NCCC3)CC1)C1CNc2ccccc2C1` (single isomer, unassigned) [Cpd 19-3, 1,2,3,4-tetrahydro-β-[[1-[1-oxo-3-(5,6,7,8-tetrahydro-1,8-naphthyridin-2-yl)propyl]-4-piperidinyl]methyl]-3-quinolinepropanoic acid]: the IC50 came out at 1.17 ± 0.02 µM on human purified αVβ5 (read-out: αvβ5 IC50) and 0.0447 ± 0.0204 µM on Human αvβ3 (read-out: αvβ3IC50).
Take `O=C(O)CC(CCC1CCN(C(=O)c2cccc(NC3=NCCCN3)c2)CC1)c1cnc2ccccc2c1` (stereo not drawn) [Cpd 12, β-[2-[1-[3-[(1,4,5,6-Tetrahydro-2-pyrimidinyl)amino]benzoyl]-4-piperidinyl]ethyl]-3-quinolinepropanoic acid]: the IC50 worked out at 0.078 ± 0.017 µM on human purified αVβ5 (read-out: αvβ5 IC50), 136 ± 3 nM on GP IIb/IIIa and 0.0042 ± 0.0014 µM on Human αvβ3 (read-out: αvβ3IC50).
For `O=C(O)CC(CCC1CCN(C(=O)c2cccc(NC3=NCC(O)CN3)c2)CC1)c1cccnc1` (stereo not drawn) [Cpd 7, β-[2-[1-[3-[(1,4,5,6-Tetrahydro-5-hydroxy-2-pyrimidinyl)amino]benzoyl]-4-piperidinyl]ethyl]-3-pyridinepropanoic acid], in that order: 0.0395 ± 0.0085 µM, 1670 ± 740 nM and 0.0082 ± 0.0014 µM.
The corresponding values for `O=C(O)CC(CCC1CCN(C(=O)Cc2ccc3c(n2)NCCC3)CC1)c1ccc2c(c1)OCO2` (stereo not drawn) [Cpd 55, β-(1,3-benzodioxol-5-yl)-1-[(5,6,7,8-tetrahydro-1,8-naphthyridin-2-yl)acetyl]-4-piperidinepentanoic acid] are 0.737 µM, 15600 nM and 0.095 µM.
For `O=C(O)CC(CC1CCN(C(=O)CCc2ccc3c(n2)NCCC3)CC1)c1ccc(F)cc1` (stereo not drawn) [Cpd 33, β-(4-fluorophenyl)-1-[1-oxo-3-(5,6,7,8-tetrahydro-1,8-naphthyridin-2-yl)propyl]-4-piperidinebutanoic acid], in that order: 0.0226 ± 0.0052 µM, above 50000 nM and 0.0013 ± 0.0004 µM.
Consider `O=C(O)CC(CCC1CCN(C(=O)c2cccc(NC3=NCCCN3)c2)CC1)c1cccnc1` (stereo not drawn) [Cpd 6, β-[2-[1-[3-[(1,4,5,6-Tetrahydro-2-pyrimidinyl)amino]benzoyl]-4-piperidinyl]ethyl]-3-pyridinepropanoic acid], for which the results for the IC50 at human purified αVβ5 (read-out: αvβ5 IC50), at GP IIb/IIIa and at Human αvβ3 (read-out: αvβ3IC50) were 0.54 µM, 1620 ± 50 nM and 0.0076 ± 0.0021 µM, respectively.
On to `O=C(O)CC(CC1CCN(C(=O)CCc2ccc3c(n2)NCCC3)CC1)c1ccc2c(c1)OCO2` (stereo not drawn) [Cpd 11, β-(1,3-Benzodioxol-5-yl)-1-[1-oxo-3-(5,6,7,8-tetrahydro-1,8-naphthyridin-2-yl)propyl]-4-piperidinebutanoic acid], for which the results for the IC50 at human purified αVβ5 (read-out: αvβ5 IC50), on GP IIb/IIIa and on Human αvβ3 (read-out: αvβ3IC50) were 0.0023 ± 0.0009 µM, 2520 ± 300 nM and 0.0011 ± 0.0002 µM, respectively.
As to `O=C(O)CC(CC1CCN(C(=O)CCCc2ccc3c(n2)NCCC3)CC1)c1cccc(F)c1` (stereo not drawn) [Cpd 31, β-(3-fluorophenyl)-1-[1-oxo-4-(5,6,7,8-tetrahydro-1,8-naphthyridin-2-yl)butyl]-4-piperidinebutanoic acid], the IC50 at human purified αVβ5 (read-out: αvβ5 IC50) is 0.3 µM; at GP IIb/IIIa it was 21600 ± 4870 nM; on Human αvβ3 (read-out: αvβ3IC50) it was 0.033 µM.
Turning to `O=C(O)CC(CC1CCN(C(=O)CCc2ccc3c(n2)NCCC3)CC1)c1ccc2ccccc2c1` (single isomer, unassigned) [Cpd 56b, 3-Naphthalen-2-yl-4-[1-(3-5,6,7,8-tetrahydro-[1,8]naphthyridin-2-yl-propionyl)-piperidin-4-yl]-butyric acid], the IC50 was 0.81 ± 0.104 µM on human purified αVβ5 (read-out: αvβ5 IC50) and 0.326 ± 0.0894 µM at Human αvβ3 (read-out: αvβ3IC50).
`COc1ccc(C(CC(=O)O)CC2CCN(C(=O)CCc3ccc4c(n3)NCCC4)CC2)cn1` (single isomer, unassigned) [Cpd 28b, 6-methoxy-β-[[1-[1-oxo-3-(5,6,7,8-tetrahydro-1,8-naphthyridin-2-yl)propyl]-4-piperidinyl]methyl]-3-pyridinepropanoic acid]: the IC50 came out at 0.126 ± 0.0448 µM at human purified αVβ5 (read-out: αvβ5 IC50), 24300 nM at GP IIb/IIIa and 0.0208 ± 0.0053 µM on Human αvβ3 (read-out: αvβ3IC50).
In the case of `CN1CC(C(CC(=O)O)CC2CCN(C(=O)CCc3ccc4c(n3)NCCC4)CC2)Cc2ccccc21` (racemic) [Cpd 67, N-Methyl-1,2,3,4-tetrahydro-β-[[1-[1-oxo-3-(5,6,7,8-tetrahydro-1,8-naphthyridin-2-yl)propyl]-4-piperidinyl]methyl]-3-quinolinepropanoic acid], the IC50 on human purified αVβ5 (αvβ5 IC50 (uM)) came out at 0.176 ± 0.035 µM; at GP IIb/IIIa, 7820 nM; at Human αvβ3 (αvβ3IC50 (uM)), 0.048 ± 0.003 µM.
`O=C(O)CC(CC1CCN(C(=O)CCc2ccc3c(n2)NCCC3)CC1)c1ccc2c(c1)OCC2` (single isomer, unassigned) [Cpd 36a, 3-(2,3-Dihydro-benzofuran-6-yl)-4-[1-(3-5,6,7,8-tetrahydro-[1,8]naphthyridin-2-yl-propionyl)-piperidin-4-yl]-butyric acid]: the IC50 at human purified αVβ5 (read-out: αvβ5 IC50) turned out to be 0.0009 ± 0.0006 µM; at GP IIb/IIIa it was 790 ± 50 nM; at Human αvβ3 (read-out: αvβ3IC50), 0.0004 µM.
With `O=C(O)CC(CC1CCN(C(=O)CCc2ccc3c(n2)NCCC3)CC1)c1cnc2ccccc2c1` (stereo not drawn) [Cpd 32, β-[[1-[1-oxo-3-(5,6,7,8-tetrahydro-1,8-naphthyridin-2-yl)propyl]-4-piperidinyl]methyl]-3-quinolinepropanoic acid], the IC50 came out at 0.0022 ± 0.0007 µM on human purified αVβ5 (αvβ5 IC50 (uM)), 1050 ± 560 nM on GP IIb/IIIa and 0.0008 ± 0.0002 µM at Human αvβ3 (αvβ3IC50 (uM)).
Regarding `COc1cc(C(CC(=O)O)CC2CCN(C(=O)CCc3ccc4c(n3)NCCC4)CC2)ccc1O` (stereo not drawn) [Cpd 76a], the IC50 worked out at 0.0169 ± 0.0021 µM on human purified αVβ5 (read-out: αvβ5 IC50), 10400 nM at GP IIb/IIIa and 0.0011 ± 0.0002 µM at Human αvβ3 (read-out: αvβ3IC50).
As to `O=C(O)CC(CCC1CCN(C(=O)c2cccc(NC3=NCCCC3)c2)CC1)c1ccc2c(c1)OCO2` (stereo not drawn) [Cpd 53, β-(1,3-benzodioxol-5-yl)-1-[3-[(3,4,5,6-tetrahydro-2-pyridinyl)amino]benzoyl]-4-piperidinepentanoic acid], the results for the IC50 at human purified αVβ5 (read-out: αvβ5 IC50), on GP IIb/IIIa and on Human αvβ3 (read-out: αvβ3IC50) were 0.138 ± 0.0415 µM, 940 ± 50 nM and 0.0298 ± 0.0137 µM, respectively.
In the case of `COC(=O)CCCC1CCN(C(=O)CCc2ccc3c(n2)NCCC3)CC1` [Cpd 73, 4-[1-(3-5,6,7,8-Tetrahydro-[1,8]naphthyridin-2-yl-propionyl)-piperidin-4-yl]-butyric acid methyl ester], the IC50 on human purified αVβ5 (read-out: αvβ5 IC50) is above 1 µM; at GP IIb/IIIa, above 50000 nM; on Human αvβ3 (read-out: αvβ3IC50), above 0.5 µM.
For `O=C(O)CC(CC1CCN(C(=O)CCc2ccc3c(n2)NCCC3)CC1)c1cncc2ccccc12` (stereo not drawn) [Cpd 44, β-[[1-[1-oxo-3-(5,6,7,8-tetrahydro-1,8-naphthyridin-2-yl)propyl]-4-piperidinyl]methyl]-4-isoquinolinepropanoic acid], in that order: 0.002 ± 0.0006 µM, 5440 ± 1100 nM and 0.0022 ± 0.0009 µM.
Take `O=C(O)CC(CC1CCN(C(=O)c2cccc(NC3=NCCN3)c2)CC1)c1cccc(F)c1` (racemic) [Cpd 77]: the results for the IC50 at human purified αVβ5 (read-out: αvβ5 IC50) and at Human αvβ3 (read-out: αvβ3IC50) were 0.789 ± 0.065 µM and 0.138 µM, respectively.
As to `O=C(O)CCC1CCN(C(=O)CCc2cccc(NC3=NCCCN3)c2)CC1` [Cpd 2, 1-[1-Oxo-3-[3-[(1,4,5,6-tetrahydro-2-pyrimidinyl)amino]phenyl]propyl]-4-piperidinepropanoic acid], the IC50 on GP IIb/IIIa turned out to be 4780 ± 1010 nM; on Human αvβ3 (read-out: αvβ3IC50) it was 5.4 µM.
Take `O=C(O)CC(C1CCN(C(=O)CCCc2ccc3c(n2)NCCC3)CC1)C1CNc2ccccc2C1` (single isomer, unassigned) [Cpd 5-3, 1,2,3,4-Tetrahydro-β-[1-[1-oxo-4-(5,6,7,8-tetrahydro-1,8-naphthyridin-2-yl)butyl]-4-piperidinyl]-3-quinolinepropanoic acid]: the IC50 on human purified αVβ5 (read-out: αvβ5 IC50) is above 5 µM; at Human αvβ3 (αvβ3IC50 (uM)), 0.161 µM.
Regarding `O=C(O)CC(CCC1CCN(C(=O)CCCNc2ccccn2)CC1)c1cccnc1` (stereo not drawn) [Cpd 9, β-[2-[1-[1-Oxo-4-(2-pyridinylamino)butyl]-4-piperidinyl]ethyl]-3-pyridinepropanoic acid], the values for the IC50 at GP IIb/IIIa and on Human αvβ3 (read-out: αvβ3IC50) were 8510 ± 2360 nM and above 1 µM, respectively.

The record behind these values is US7879881B2, “Piperidinyl compounds that selectively bind integrins” (Janssen Pharmaceutica NV, priority 2002, dated 2011).
